Experimental data as given in PubChem BioAssay AID1259407 (Chemical Carcinogenesis Research Information System (CCRIS), 2018).
Calls of active or inactive are those of the source. No rule for the calls is given here.

Test system: CCRIS mutagenicity, Ames/micronucleus/aberration tests
Test: CCRIS mutagenicity studies
[1] = Test System: AMES SALMONELLA TYPHIMURIUM, Strain/Indicator: TA98, Metabolic Activation: NONE, Method: PREINCUBATION
[2] = Test System: AMES SALMONELLA TYPHIMURIUM, Strain/Indicator: TA100, Metabolic Activation: NONE, Method: PREINCUBATION

Measured: mutagenic call

COc1c(C=O)c(O)cc2c1C(=O)c1ccccc1C2=O
inactive: [1] inactive; negative | Test System: AMES SALMONELLA TYPHIMURIUM, Strain/Indicator: TA98, Metabolic Activation: RAT, LIVER, S-9, PCB, Method: PREINCUBATION inactive; negative | [2] inactive; negative | Test System: AMES SALMONELLA TYPHIMURIUM, Strain/Indicator: TA100, Metabolic Activation: RAT, LIVER, S-9, PCB, Method: PREINCUBATION inactive; negative

NCC(=O)O
inactive: Test System: AMES SALMONELLA TYPHIMURIUM, Strain/Indicator: TA97, Metabolic Activation: NONE, Method: PREINCUBATION inactive; negative | Test System: AMES SALMONELLA TYPHIMURIUM, Strain/Indicator: TA97, Metabolic Activation: RAT, LIVER, S-9, AROCLOR 1254, Method: PREINCUBATION inactive; negative | Test System: AMES SALMONELLA TYPHIMURIUM, Strain/Indicator: TA98, Metabolic Activation: HAMSTER, LIVER, S-9, AROCLOR 1254, Method: PREINCUBATION inactive; negative | [1] inactive; negative | Test System: AMES SALMONELLA TYPHIMURIUM, Strain/Indicator: TA98, Metabolic Activation: NONE, Method: STANDARD PLATE inactive; negative | Test System: AMES SALMONELLA TYPHIMURIUM, Strain/Indicator: TA98, Metabolic Activation: RAT, LIVER, S-9, AROCLOR 1254, Method: PREINCUBATION inactive; negative | Test System: AMES SALMONELLA TYPHIMURIUM, Strain/Indicator: TA98, Metabolic Activation: RAT, LIVER, S-9, AROCLOR 1254, Method: STANDARD PLATE inactive; negative | Test System: AMES SALMONELLA TYPHIMURIUM, Strain/Indicator: TA100, Metabolic Activation: HAMSTER, LIVER, S-9, AROCLOR 1254, Method: PREINCUBATION inactive; negative | [2] inactive; negative | Test System: AMES SALMONELLA TYPHIMURIUM, Strain/Indicator: TA100, Metabolic Activation: NONE, Method: STANDARD PLATE inactive; negative | Test System: AMES SALMONELLA TYPHIMURIUM, Strain/Indicator: TA100, Metabolic Activation: RAT, LIVER, S-9, AROCLOR 1254, Method: PREINCUBATION inactive; negative | Test System: AMES SALMONELLA TYPHIMURIUM, Strain/Indicator: TA100, Metabolic Activation: RAT, LIVER, S-9, AROCLOR 1254, Method: STANDARD PLATE inactive; negative | Test System: AMES SALMONELLA TYPHIMURIUM, Strain/Indicator: TA102, Metabolic Activation: NONE, Method: PREINCUBATION inactive; negative | Test System: AMES SALMONELLA TYPHIMURIUM, Strain/Indicator: TA102, Metabolic Activation: RAT, LIVER, S-9, AROCLOR 1254, Method: PREINCUBATION inactive; negative | Test System: AMES SALMONELLA TYPHIMURIUM, Strain/Indicator: TA1535, Metabolic Activation: HAMSTER, LIVER, S-9, AROCLOR 1254, Method: PREINCUBATION inactive; negative | Test System: AMES SALMONELLA TYPHIMURIUM, Strain/Indicator: TA1535, Metabolic Activation: NONE, Method: PREINCUBATION inactive; negative | Test System: AMES SALMONELLA TYPHIMURIUM, Strain/Indicator: TA1535, Metabolic Activation: NONE, Method: STANDARD PLATE inactive; negative | Test System: AMES SALMONELLA TYPHIMURIUM, Strain/Indicator: TA1535, Metabolic Activation: RAT, LIVER, S-9, AROCLOR 1254, Method: PREINCUBATION inactive; negative | Test System: AMES SALMONELLA TYPHIMURIUM, Strain/Indicator: TA1535, Metabolic Activation: RAT, LIVER, S-9, AROCLOR 1254, Method: STANDARD PLATE inactive; negative | Test System: AMES SALMONELLA TYPHIMURIUM, Strain/Indicator: TA1537, Metabolic Activation: HAMSTER, LIVER, S-9, AROCLOR 1254, Method: PREINCUBATION inactive; negative | Test System: AMES SALMONELLA TYPHIMURIUM, Strain/Indicator: TA1537, Metabolic Activation: NONE, Method: PREINCUBATION inactive; negative | Test System: AMES SALMONELLA TYPHIMURIUM, Strain/Indicator: TA1537, Metabolic Activation: NONE, Method: STANDARD PLATE inactive; negative | Test System: AMES SALMONELLA TYPHIMURIUM, Strain/Indicator: TA1537, Metabolic Activation: RAT, LIVER, S-9, AROCLOR 1254, Method: PREINCUBATION inactive; negative | Test System: AMES SALMONELLA TYPHIMURIUM, Strain/Indicator: TA1537, Metabolic Activation: RAT, LIVER, S-9, AROCLOR 1254, Method: STANDARD PLATE inactive; negative | Test System: AMES SALMONELLA TYPHIMURIUM, Strain/Indicator: TA1538, Metabolic Activation: NONE, Method: STANDARD PLATE inactive; negative | Test System: AMES SALMONELLA TYPHIMURIUM, Strain/Indicator: TA1538, Metabolic Activation: RAT, LIVER, S-9, AROCLOR 1254, Method: STANDARD PLATE inactive; negative | Test System: MOUSE LYMPHOMA, Strain/Indicator: L5178Y (TK+/TK-), Metabolic Activation: NONE inactive; negative | Test System: MOUSE LYMPHOMA, Strain/Indicator: L5178Y (TK+/TK-), Metabolic Activation: RAT, LIVER, S-9, AROCLOR 1254 inactive; negative | Test System: MOUSE LYMPHOMA, Strain/Indicator: L5178Y (TK+/TK-), Metabolic Activation: RAT, LIVER, S-9, AROCLOR 1254, Method: SUSPENSION/PLATE inactive; negative. reevaluation of results: inconclusive | Test System: UDS RAT PRIMARY HEPATOCYTES, Metabolic Activation: NONE inactive; negative
active: Test System: Mouse lymphoma, Strain/Indicator: L5178Y (tk+/tk-), Metabolic Activation: None, Method: Suspension/plate active; inconclusive (previous evaluation positive)

CC(Cl)C(Br)CBr (centres undefined)
active: Test System: AMES SALMONELLA TYPHIMURIUM, Strain/Indicator: TA100, Metabolic Activation: RAT, LIVER, MICROSOMES, PHENOBARBITAL, Method: PREINCUBATION active; positive | Test System: AMES SALMONELLA TYPHIMURIUM, Strain/Indicator: TA100, Metabolic Activation: RAT, LIVER, MICROSOMES, Method: PREINCUBATION active; positive

N#Cc1c(Cl)c(Cl)c(Cl)c(C#N)c1Cl
active: End Point: IN VITRO CHROMOSOMAL ABERRATIONS, Test System: CHINESE HAMSTER OVARY CELLS, Metabolic Activation: NONE active; positive | End Point: IN VITRO CHROMOSOMAL ABERRATIONS, Test System: CHINESE HAMSTER OVARY CELLS, Metabolic Activation: RAT, LIVER, S-9, AROCLOR 1254 active; positive
